PubChem BioAssay (NCI)
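In this assay, cells in 96-well plates receive the compound at five concentrations for 48 hours. Endpoints are linearly interpolated between the surrounding concentrations. GI50 = concentration required for 50% inhibition of growth. TGI is the concentration that stops growth completely.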

Columns and labels:
Assay in all cases: DTP human tumour cell line panel, 48 h
[1] = test system: BT-549 breast
[2] = test system: SF-268 CNS
[3] = test system: UO-31 renal
[4] = test system: HS 578T breast
[5] = test system: HCT-116 colon
[6] = test system: UACC-62 melanoma
[7] = test system: NCI/ADR-RES ovarian
[8] = test system: OVCAR-5 ovarian
[9] = test system: EKVX NSCLC
[10] = test system: OVCAR-4 ovarian
[11] = test system: HOP-92 NSCLC
[12] = test system: COLO 205 colon
[13] = test system: A549 NSCLC
[14] = test system: LOX IMVI melanoma
[15] = test system: U251 CNS
[16] = test system: OVCAR-8 ovarian
[17] = test system: HOP-62 NSCLC
[18] = test system: RXF 393 renal
[19] = test system: NCI-H460 lung
[20] = test system: ACHN renal
[21] = test system: HT29 colon
[22] = test system: HCC-2998 colon
[23] = test system: MDA-MB-231 breast
[24] = test system: UACC-257 melanoma
[25] = test system: NCI-H226 lung
[26] = test system: PC-3 prostate
[27] = test system: MALME-3M melanoma
[28] = test system: NCI-H23 lung
[29] = test system: DU-145 prostate
[30] = test system: MDA-MB-435
[31] = test system: KM12 colon
[32] = test system: CAKI-1 renal
[33] = test system: NCI-H522 lung
[34] = test system: SK-MEL-5 melanoma
[35] = test system: CCRF-CEM leukemia
[36] = test system: T-47D breast
[37] = test system: SK-MEL-28 melanoma
[38] = test system: SNB-19 CNS
[39] = test system: MOLT-4 leukemia
[40] = test system: SF-295 CNS
[41] = test system: 786-0 renal
[42] = test system: M14 melanoma
[43] = test system: SR leukemia
[44] = test system: RPMI-8226 leukemia
[45] = test system: SN12C renal
[46] = test system: A498 renal
[47] = test system: IGROV1 ovarian
[48] = test system: K-562 leukemia
[49] = test system: HL-60(TB) leukemia
[50] = test system: SK-MEL-2 melanoma
[51] = test system: OVCAR-3 ovarian
[52] = test system: MCF7 breast
[53] = test system: SK-OV-3 ovarian
[54] = test system: SNB-75 CNS
[55] = test system: SW-620 colon
[56] = test system: SF-539 CNS
[57] = test system: TK-10 renal
[58] = test system: HCT-15 colon

## O=C1Nc2ccccc2C1(c1ccc(O)cc1)c1ccc(O)cc1
[1]
  GI50: 0.0625 µM
  TGI: 0.541 µM
[2]
  GI50: 24.4 µM
  TGI: 77.9 µM
[3]
  GI50: 23.7 µM
  TGI: > 89.1 µM
[4]
  GI50: 0.0932 µM
  TGI: 0.298 µM
[5]
  GI50: 14.5 µM
  TGI: 31.6 µM
[6]
  GI50: 19.2 µM
  TGI: 43.8 µM
[7]
  GI50: 0.982 µM
  TGI: > 100 µM
[8]
  GI50: 25.6 µM
  TGI: 81.5 µM
[9]
  GI50: 14.5 µM
  TGI: 90 µM
[10]
  GI50: 0.103 µM
  TGI: 0.961 µM
[11]
  GI50: 2.42 µM
  TGI: 21.2 µM
[12]
  GI50: 0.125 µM
  TGI: 4.38 µM
[13]
  GI50: 27.9 µM
  TGI: > 96.7 µM
[14]
  GI50: 5.97 µM
  TGI: 35.9 µM
[15]
  GI50: 24.2 µM
  TGI: 63.5 µM
[16]
  GI50: 0.273 µM
  TGI: 77.5 µM
[17]
  GI50: 20.5 µM
  TGI: 53.1 µM
[18]
  GI50: 0.445 µM
  TGI: 13.4 µM
[19]
  GI50: 18.5 µM
  TGI: 37.9 µM
[20]
  GI50: 17.9 µM
  TGI: > 100 µM
[21]
  GI50: 29.3 µM
  TGI: > 90 µM
[22]
  GI50: 1.99 µM
  TGI: 27 µM
[23]
  GI50: 20.3 µM
  TGI: 48.7 µM
[24]
  GI50: 25.3 µM
  TGI: 62 µM
[25]
  GI50: 12.8 µM
  TGI: 59.7 µM
[26]
  GI50: 2.71 µM
  TGI: 75 µM
[27]
  GI50: 28.5 µM
  TGI: 92 µM
[28]
  GI50: 1.23 µM
  TGI: 37.8 µM
[29]
  GI50: 21 µM
  TGI: 54.3 µM
[30]
  GI50: 23 µM
  TGI: 71.3 µM
[31]
  GI50: 12.1 µM
  TGI: 28.4 µM
[32]
  GI50: 22.7 µM
  TGI: 81.3 µM
[33]
  GI50: 17.2 µM
  TGI: 43.4 µM
[34]
  GI50: 14.7 µM
  TGI: 29.3 µM
[35]
  GI50: 32.7 µM
  TGI: 99.8 µM
[36]
  GI50: 0.0474 µM
  TGI: 0.245 µM
[37]
  GI50: 26.9 µM
  TGI: 65.7 µM
[38]
  GI50: 34.3 µM
  TGI: > 97 µM
[39]
  GI50: 26.6 µM
  TGI: 98.1 µM
[40]
  GI50: 16.2 µM
  TGI: 49.4 µM
[41]
  GI50: 26.7 µM
  TGI: 75.9 µM
[42]
  GI50: 20.1 µM
  TGI: 49.3 µM
[43]
  GI50: 32.9 µM
  TGI: > 96.3 µM
[44]
  GI50: 25.8 µM
  TGI: 70.9 µM
[45]
  GI50: 0.312 µM
  TGI: 50.6 µM
[46]
  GI50: 17.8 µM
  TGI: 47.1 µM
[47]
  GI50: 10.2 µM
  TGI: 39.3 µM
[48]
  GI50: 29.2 µM
  TGI: > 100 µM
[49]
  GI50: 22.9 µM
  TGI: 63 µM
[50]
  GI50: 22.9 µM
  TGI: 50.6 µM
[51]
  GI50: 0.11 µM
  TGI: 0.899 µM
[52]
  GI50: 0.378 µM
  TGI: 27.8 µM
[53]
  GI50: 22.8 µM
  TGI: 54.2 µM
[54]
  GI50: 12.7 µM
  TGI: 38 µM
[55]
  GI50: 26.2 µM
  TGI: 83 µM
[56]
  GI50: 18.5 µM
  TGI: 40.2 µM
[57]
  GI50: 0.536 µM
  TGI: 39.6 µM
[58]
  GI50: 19.2 µM
  TGI: > 100 µM
